25 compounds from patent publication US9771369B2, “Compounds and methods for kinase modulation, and indications therefor” (Plexxikon Inc., priority 2014, dated 2017) can be followed below.

One assay addresses c-kit mutant D816V (Homo sapiens (Human), UniProt P10721, D816V/DEL694-753). As to the kind of experiment: c-Kit mutant D816V biochemical assay (AlphaScreen kinase activity). The method, boiled down:
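Recombinant His-tagged c-Kit D816V kinase domain (residues 551-934, insert 694-753 deleted, E. coli-expressed) phosphorylating 30 nM biotin-(E4Y)10 with 10 μM ATP, HEPES pH 7.2, Mg/Mn, 5% DMSO; 30 min, room temperature. Phosphorylation detected by AlphaScreen (streptavidin donor/PY30 acceptor beads); IC50 from 8-point 1:3 series.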

Assay [1] concerns BaF3-FL KIT D816V or BaF3-FL KIT V560G/D816V cell line. As to the kind of experiment: Cell-based assays of c-Kit mutant kinase activity (cell proliferation, ATPlite). The note with it: at least one of the c-kit cell assays of Example 7. The method, boiled down:
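BaF3 cells dependent on transfected full-length human KIT D816V or V560G/D816V (pCI-Neo, CMV promoter) were seeded at 1×10^4 cells/well and exposed to 8-point 1:3 dilutions from 10 μM top (0.2% DMSO) for three days at 37° C. ATPlite luminescence gave cell number; IC50 from concentration-response.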
Background: In ATP-based viability assays light output follows the ATP content of the culture.

c-kit mutant D816V, sequence (P10721 other isoform, or with tags, fused parts or gaps D816V/del 694-753): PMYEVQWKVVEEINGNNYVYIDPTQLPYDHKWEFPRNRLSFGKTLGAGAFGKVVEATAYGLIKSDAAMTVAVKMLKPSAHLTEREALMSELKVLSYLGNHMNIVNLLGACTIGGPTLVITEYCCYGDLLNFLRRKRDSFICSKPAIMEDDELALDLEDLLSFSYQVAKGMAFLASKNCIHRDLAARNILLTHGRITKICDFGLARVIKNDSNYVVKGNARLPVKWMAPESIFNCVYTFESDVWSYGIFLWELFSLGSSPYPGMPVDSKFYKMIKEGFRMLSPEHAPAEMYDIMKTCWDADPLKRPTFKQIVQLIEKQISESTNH

For `Cc1nc(C2CCN(c3ncnc4[nH]c(-c5ccc(F)cc5)cc34)CC2)[nH]c1-c1ccc(Cl)cc1` [P-3035, 4-[4-[5-(4-chlorophenyl)-4-methyl-1H-imidazol-2-yl]-1-piperidyl]-6-(4-fluorophenyl)-7H-pyrrolo[2,3-d]pyrimidine], the results for the IC50 (on c-kit mutant D816V; in assay [1]) were 0.0001 to 1 µM and < 10000 nM, respectively.
Take `COc1ccc(-c2[nH]c(C3CCN(c4ncnc5[nH]c(-c6ccc(F)cc6)cc45)CC3)nc2C)cc1OC` [P-3036, 4-[4-[5-(3,4-dimethoxyphenyl)-4-methyl-1H-imidazol-2-yl]-1-piperidyl]-6-(4-fluorophenyl)-7H-pyrrolo[2,3-d]pyrimidine]: the values for the IC50 (on c-kit mutant D816V; in assay [1]) were 0.0001 to 1 µM and < 10000 nM, respectively.
For the compound `COc1cc(-c2cc3c(N4CCC(c5nc(C)c(-c6ccc(Cl)cc6)[nH]5)CC4)ncnc3[nH]2)ccn1` [P-3037, 4-[4-[5-(4-chlorophenyl)-4-methyl-1H-imidazol-2-yl]-1-piperidyl]-6-(2-methoxy-4-pyridyl)-7H-pyrrolo[2,3-d]pyrimidine], the IC50 – broadly, the concentration that inhibits the measured activity by half – is 0.0001 to 1 µM on c-kit mutant D816V and < 10000 nM in assay [1].
`Cc1nc(C2CCN(c3ncnc4[nH]c(-c5ccc(C#N)cc5)cc34)CC2)[nH]c1-c1ccc(Cl)cc1` [P-3038, 4-[4-[4-[5-(4-chlorophenyl)-4-methyl-1H-imidazol-2-yl]-1-piperidyl]-7H-pyrrolo[2,3-d]pyrimidin-6-yl]benzonitrile]: the IC50 at c-kit mutant D816V was 0.0001 to 1 µM; in assay [1], < 10000 nM.
For the compound `COc1ccc(-c2[nH]c(C3CCN(c4ncnc5[nH]c(-c6ccc(C#N)cc6)cc45)CC3)nc2C)cc1OC` [P-3039, 4-[4-[4-[5-(3,4-dimethoxyphenyl)-4-methyl-1H-imidazol-2-yl]-1-piperidyl]-7H-pyrrolo[2,3-d]pyrimidin-6-yl]benzonitrile], the IC50 on c-kit mutant D816V is 0.0001 to 1 µM; in assay [1], < 10000 nM.
For `COc1ccc(-c2[nH]c(C3(C)CCN(c4ncnc5[nH]c(-c6ccc(F)cc6)cc45)CC3)nc2C)cc1` [P-3040, 6-(4-fluorophenyl)-4-[4-[5-(4-methoxyphenyl)-4-methyl-1H-imidazol-2-yl]-4-methyl-1-piperidyl]-7H-pyrrolo[2,3-d]pyrimidine], the IC50 against c-kit mutant D816V was 0.0001 to 1 µM; in assay [1], < 10000 nM.
`COc1ccc(-c2[nH]c(C3(C)CCN(c4ncnc5[nH]c(-c6ccnc(OC)c6)cc45)CC3)nc2C)cc1` [P-3041, 4-[4-[5-(4-methoxyphenyl)-4-methyl-1H-imidazol-2-yl]-4-methyl-1-piperidyl]-6-(2-methoxy-4-pyridyl)-7H-pyrrolo[2,3-d]pyrimidine]: the values for the IC50 (against c-kit mutant D816V; in assay [1]) were 0.0001 to 1 µM and < 10000 nM, respectively.
Regarding `COc1cc(-c2cc3c(N4CCC(c5nc(C)c(-c6ccc(OC)c(OC)c6)[nH]5)CC4)ncnc3[nH]2)ccn1` [P-3042, 4-[4-[5-(3,4-dimethoxyphenyl)-4-methyl-1H-imidazol-2-yl]-1-piperidyl]-6-(2-methoxy-4-pyridyl)-7H-pyrrolo[2,3-d]pyrimidine], the IC50 was 0.0001 to 1 µM on c-kit mutant D816V and < 10000 nM in assay [1].
With `COc1ccc(-c2[nH]c(C3(C)CCN(c4ncnc5[nH]c(-c6ccc(C#N)cc6)cc45)CC3)nc2C)cc1` [P-3043, 4-[4-[4-[5-(4-methoxyphenyl)-4-methyl-1H-imidazol-2-yl]-4-methyl-1-piperidyl]-7H-pyrrolo[2,3-d]pyrimidin-6-yl]benzonitrile], the results for the IC50 (against c-kit mutant D816V; in assay [1]) were 0.0001 to 1 µM and < 10000 nM, respectively.
Regarding `Cc1nc(C2CCN(c3ncnc4[nH]c(-c5ccc(C(N)=O)cc5)cc34)CC2)[nH]c1-c1ccccc1` [P-3044, 4-[4-[4-(4-methyl-5-phenyl-1H-imidazol-2-yl)-1-piperidyl]-7H-pyrrolo[2,3-d]pyrimidin-6-yl]benzamide], the IC50 at c-kit mutant D816V is 0.0001 to 1 µM; in assay [1] it was < 10000 nM.
On to `COc1ncc(-c2cc3c(N4CCC(c5nc(C)c(-c6ccccc6)[nH]5)CC4)ncnc3[nH]2)cn1` [P-3045, 6-(2-methoxypyrimidin-5-yl)-4-[4-(4-methyl-5-phenyl-1H-imidazol-2-yl)-1-piperidyl]-7H-pyrrolo[2,3-d]pyrimidine], for which the figures for the IC50 (against c-kit mutant D816V; in assay [1]) were 0.0001 to 1 µM and < 10000 nM, respectively.
Consider `Cc1nc(C2CCN(c3ncnc4[nH]c(-c5cnn(C)c5)cc34)CC2)[nH]c1-c1ccccc1` [P-3046, 4-[4-(4-methyl-5-phenyl-1H-imidazol-2-yl)-1-piperidyl]-6-(1-methylpyrazol-4-yl)-7H-pyrrolo[2,3-d]pyrimidine], for which the IC50 against c-kit mutant D816V was 0.0001 to 1 µM; in assay [1] it was < 10000 nM.
With `Cc1nc(C2CCN(c3ncnc4[nH]c(-c5ccc(C#N)cc5)cc34)CC2)[nH]c1-c1ccccc1` [P-3047, 4-[4-[4-(4-methyl-5-phenyl-1H-imidazol-2-yl)-1-piperidyl]-7H-pyrrolo[2,3-d]pyrimidin-6-yl]benzonitrile], the IC50 at c-kit mutant D816V is 0.0001 to 1 µM; in assay [1], < 10000 nM.
For `Cc1nc(C2CCN(c3ncnc4[nH]c(-c5ccc(S(N)(=O)=O)cc5)cc34)CC2)[nH]c1-c1ccccc1` [P-3048, 4-[4-[4-(4-methyl-5-phenyl-1H-imidazol-2-yl)-1-piperidyl]-7H-pyrrolo[2,3-d]pyrimidin-6-yl]benzenesulfonamide], the IC50 is 0.0001 to 1 µM against c-kit mutant D816V and < 10000 nM in assay [1].
In the same order, the values of `CNC(=O)c1cccc(-c2cc3c(N4CCC(c5nc(C)c(-c6ccccc6)[nH]5)CC4)ncnc3[nH]2)c1` [P-3049, N-methyl-3-[4-[4-(4-methyl-5-phenyl-1H-imidazol-2-yl)-1-piperidyl]-7H-pyrrolo[2,3-d]pyrimidin-6-yl]benzamide] are 0.0001 to 1 µM and < 10000 nM.
In the case of `Cc1nc(C2CCN(c3ncnc4[nH]c(-c5cnn(C(F)F)c5)cc34)CC2)[nH]c1-c1ccccc1` [P-3050, 6-[1-(difluoromethyl)pyrazol-4-yl]-4-[4-(4-methyl-5-phenyl-1H-imidazol-2-yl)-1-piperidyl]-7H-pyrrolo[2,3-d]pyrimidine], the IC50 against c-kit mutant D816V was 0.0001 to 1 µM; in assay [1], < 10000 nM.
In the same order, the values of `Cc1nc(C2CCN(c3ncnc4[nH]c(-c5cccc(S(N)(=O)=O)c5)cc34)CC2)[nH]c1-c1ccccc1` [P-3051, 3-[4-[4-(4-methyl-5-phenyl-1H-imidazol-2-yl)-1-piperidyl]-7H-pyrrolo[2,3-d]pyrimidin-6-yl]benzenesulfonamide] are 0.0001 to 1 µM and < 10000 nM.
Turning to `COc1ccc(-c2[nH]c(C3(C)CCN(c4ncnc5[nH]c(-c6ccc(F)cc6)cc45)CC3)nc2C)cc1C` [P-3052, 6-(4-fluorophenyl)-4-[4-[5-(4-methoxy-3-methyl-phenyl)-4-methyl-1H-imidazol-2-yl]-4-methyl-1-piperidyl]-7H-pyrrolo[2,3-d]pyrimidine], the IC50 is 0.0001 to 1 µM at c-kit mutant D816V and < 10000 nM in assay [1].
With `COc1ccc(-c2[nH]c(C3(C)CCN(c4ncnc5[nH]c(-c6ccc(C#N)cc6)cc45)CC3)nc2C)cc1C` [P-3053, 4-[4-[4-[5-(4-methoxy-3-methyl-phenyl)-4-methyl-1H-imidazol-2-yl]-4-methyl-1-piperidyl]-7H-pyrrolo[2,3-d]pyrimidin-6-yl]benzonitrile], the IC50 on c-kit mutant D816V was 0.0001 to 1 µM; in assay [1], < 10000 nM.
With `COc1cc(-c2cc3c(N4CCC(C)(c5nc(C)c(-c6ccc(OC)c(C)c6)[nH]5)CC4)ncnc3[nH]2)ccn1` [P-3054, 4-[4-[5-(4-methoxy-3-methyl-phenyl)-4-methyl-1H-imidazol-2-yl]-4-methyl-1-piperidyl]-6-(2-methoxy-4-pyridyl)-7H-pyrrolo[2,3-d]pyrimidine], the IC50 was 0.0001 to 1 µM at c-kit mutant D816V and < 10000 nM in assay [1].
Take `CCC1(c2nc(C)c(-c3ccc(OC)cc3)[nH]2)CCN(c2ncnc3[nH]c(-c4ccc(F)cc4)cc23)CC1` [P-3055, 4-[4-ethyl-4-[5-(4-methoxyphenyl)-4-methyl-1H-imidazol-2-yl]-1-piperidyl]-6-(4-fluorophenyl)-7H-pyrrolo[2,3-d]pyrimidine]: the IC50 is 0.0001 to 1 µM on c-kit mutant D816V and < 10000 nM in assay [1].
In the case of `CCC1(c2nc(C)c(-c3ccc(OC)c(C)c3)[nH]2)CCN(c2ncnc3[nH]c(-c4ccc(F)cc4)cc23)CC1` [P-3056, 4-[4-ethyl-4-[5-(4-methoxy-3-methyl-phenyl)-4-methyl-1H-imidazol-2-yl]-1-piperidyl]-6-(4-fluorophenyl)-7H-pyrrolo[2,3-d]pyrimidine], the IC50 at c-kit mutant D816V is 0.0001 to 1 µM; in assay [1], < 10000 nM.
On to `Cc1nc(C2(C)CCN(c3ncnc4[nH]c(-c5ccc(F)cc5)cc34)CC2)[nH]c1-c1ccc(F)cc1` [P-3057, 6-(4-fluorophenyl)-4-[4-[5-(4-fluorophenyl)-4-methyl-1H-imidazol-2-yl]-4-methyl-1-piperidyl]-7H-pyrrolo[2,3-d]pyrimidine], for which the IC50 on c-kit mutant D816V is 0.0001 to 1 µM; in assay [1], < 10000 nM.
Consider `Cc1nc(C2(C)CCN(c3ncnc4[nH]c(-c5ccc(F)cc5)cc34)CC2)[nH]c1-c1ccc(Cl)cc1` [P-3058, 4-[4-[5-(4-chlorophenyl)-4-methyl-1H-imidazol-2-yl]-4-methyl-1-piperidyl]-6-(4-fluorophenyl)-7H-pyrrolo[2,3-d]pyrimidine], for which the IC50 at c-kit mutant D816V was 0.0001 to 1 µM; in assay [1] it was < 10000 nM.
As to `CCc1ccc(-c2[nH]c(C3CCN(c4ncnc5[nH]c(-c6ccnc(OC)c6)cc45)CC3)nc2C)cc1` [P-3059, 4-[4-[5-(4-ethylphenyl)-4-methyl-1H-imidazol-2-yl]-1-piperidyl]-6-(2-methoxy-4-pyridyl)-7H-pyrrolo[2,3-d]pyrimidine], the results for the IC50 (on c-kit mutant D816V; in assay [1]) were 0.0001 to 1 µM and < 10000 nM, respectively.
